Here are results for twelve molecules from US9611278B2 (Merck Sharp & Dohme Corp., priority 2013, dated 2017).

This test concerns the target T1, sGC α1/β1 heterodimer stably expressed in CHO-K1 cells (CHO-K1/sGC) (Homo sapiens, UniProt Q02108+Q02153).
T1 construct: expressed in transfected cells
T1 sequence (Q02108 1-690): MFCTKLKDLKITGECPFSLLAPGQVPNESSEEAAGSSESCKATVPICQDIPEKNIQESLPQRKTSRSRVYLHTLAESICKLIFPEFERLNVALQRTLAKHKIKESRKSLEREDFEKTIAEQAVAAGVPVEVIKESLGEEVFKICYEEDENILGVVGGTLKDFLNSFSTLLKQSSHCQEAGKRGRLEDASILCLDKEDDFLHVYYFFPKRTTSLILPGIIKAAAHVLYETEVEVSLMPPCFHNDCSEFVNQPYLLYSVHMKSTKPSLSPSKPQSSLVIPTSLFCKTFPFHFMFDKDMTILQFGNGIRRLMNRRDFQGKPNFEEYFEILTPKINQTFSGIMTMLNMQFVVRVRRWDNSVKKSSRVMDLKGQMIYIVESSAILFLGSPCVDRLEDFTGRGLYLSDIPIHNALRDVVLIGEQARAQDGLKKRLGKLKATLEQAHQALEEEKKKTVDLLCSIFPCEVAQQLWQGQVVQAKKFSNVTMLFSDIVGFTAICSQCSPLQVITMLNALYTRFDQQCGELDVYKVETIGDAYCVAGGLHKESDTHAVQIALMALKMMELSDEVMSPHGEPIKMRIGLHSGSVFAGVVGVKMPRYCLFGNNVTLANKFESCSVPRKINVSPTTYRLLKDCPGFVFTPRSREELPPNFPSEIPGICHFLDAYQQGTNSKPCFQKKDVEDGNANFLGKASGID
T1 sequence (Q02153 1-619): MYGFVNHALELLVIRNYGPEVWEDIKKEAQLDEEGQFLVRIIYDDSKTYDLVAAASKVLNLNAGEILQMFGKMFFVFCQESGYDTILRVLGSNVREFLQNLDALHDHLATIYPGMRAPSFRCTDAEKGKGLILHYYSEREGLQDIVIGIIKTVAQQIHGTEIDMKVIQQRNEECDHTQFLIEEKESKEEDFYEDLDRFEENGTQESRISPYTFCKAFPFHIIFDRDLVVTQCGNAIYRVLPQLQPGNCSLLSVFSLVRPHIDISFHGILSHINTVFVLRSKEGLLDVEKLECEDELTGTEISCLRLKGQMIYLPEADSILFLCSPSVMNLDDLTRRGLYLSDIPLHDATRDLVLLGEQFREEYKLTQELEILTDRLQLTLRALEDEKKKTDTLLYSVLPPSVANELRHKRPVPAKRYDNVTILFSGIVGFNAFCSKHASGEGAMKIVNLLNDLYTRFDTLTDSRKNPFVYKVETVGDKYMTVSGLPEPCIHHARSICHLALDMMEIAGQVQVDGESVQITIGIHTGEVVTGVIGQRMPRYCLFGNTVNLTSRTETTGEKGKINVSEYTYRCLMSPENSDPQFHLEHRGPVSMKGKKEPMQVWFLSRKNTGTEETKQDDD
The experiment in a line: Cell-based sGC Functional Assay (CASA Assay). Conditions: for Emax: CHO-K1, activation as percentage of maximum cGMP production of Compound A (set to 100%), read-out: % Act.; for EC50: inflection point of cGMP generation in CHO-K1/sGC cells, 4P fit, 1 hr at 37° C., read-out: IP. An excerpt: sGC is a heme-containing enzyme that converts GTP to secondary messenger cGMP. Increases in cGMP levels affect several physiological processes including vasorelaxation through multiple downstream pathways. […] Heme-dependent activators (HDAs) preferentially activate sGC containing a ferrous heme group. To determine the effect of sGC activators on enzyme activity, the CASA assay was developed to monitor the generation of cGMP in a cell line that stably expresses the heterodimeric sGC protein.
A CHO-K1 cell line stably expressing the sGC α1/β1 heterodimer was generated using a standard transfection protocol. CHO-K1 cells were transfected with plasmids pIREShyghsGCα1 and pIRESneo-hsGCβ1 simultaneously using FUGENE reagent. Clones that stably express both subunits were selected with hygromycin and neomycin for ˜2 weeks. Clone #7 was chosen for the assay and was designated CHO-K1/sGC. CHO-K1/sGC cells were maintained in F-K12 medium containing 10% heat-inactivated Fetal Bovine Serum (FBS), 100 μg/mL penicillin/streptomycin, 0.5 mg/mL hygromycin and 0.25 mg/mL G418. The cells were then cryopreserved in LN2. On the day of the assay, cells thawed and resuspended in EBSS Assay Buffer (EAB, Sigma, E3024) supplemented with 5 mM MgCl2, 10 mM HEPES (4-(2-hydroxyethyl)piperazine-1-ethanesulfonic acid) and 0.05% BSA (bovine serum albumin) and cell density was then adjusted to 4×10^5/mL with EAB. IBMX (3-isobutyl-1-methylxanthin, 0.5 mM) was added to inhibit degradation of cGMP. Compounds were diluted from DMSO stock solutions and added to the assay at a final DMSO concentration of 2.5%. Cells were incubated with compounds in the presence and absence of 1 μM of Diethylenetriamine/nitric oxide adduct (DETA-NO; Sigma, 17018) for 1 hr at 37° C. At the end of the incubation period, the reaction was terminated and the cells were lysed with the detection reagents from Cisbio Kits. The level of intracellular cGMP was determined using an HTRF-based assay kit (CisBio, 62GM2PEC), which detects the displacement of a fluorescence labeled cGMP from its specific antibody. The cGMP produced by test compounds was directly compared to the maximum cGMP production (this value was set to equal 100% activation.) of the published sGC-HDA Compound A:
(Example 1 in WO 2010/065275, published Jun. 10, 2010). The test compounds' activity were then expressed as a percentage of Compound A, the standard in every experiment. This percent activation was calculated either in the presence or absence of DETA-NO which was then plotted. IP and maximum fold induction was derived using ADA analysis software for 4P fit.

On to `[2H]C([2H])([2H])n1ncc2c(-c3nc(N)c4c(n3)NC(=O)C4(c3nc(CC(C)(C)C(=O)OCC)cs3)C3CC3)nc(CCC(F)(F)C(F)(F)F)nc21` (stereo not drawn) [Example 82, Ethyl 3-(2-(4-amino-5-cyclopropyl-2-(1-(methyl-d3)-6-(3,3,4,4,4-pentafluorobutyl)-1H-pyrazolo[3,4-d]pyrimidin-4-yl)-6-oxo-6,7-dihydro-5H-pyrrolo[2,3-d]pyrimidin-5-yl)thiazol-4-yl)-2,2-dimethylpropanoate], for which the Emax came out at 78% and the EC50 worked out at 509 nM.
On the same counts, the results for `[2H]C([2H])([2H])n1ncc2c(-c3nc(N)c4c(n3)NC(=O)C4(C)c3ncccn3)nc(CCC(F)(F)C(F)(F)F)nc21` (stereo not drawn) [Example 9, 4-Amino-5-methyl-2-(1-(methyl-d3)-6-(3,3,4,4,4-pentafluorobutyl)-1H-pyrazolo[3,4-d]pyrimidin-4-yl)-5-(pyrimidin-2-yl)-5,7-dihydro-6H-pyrrolo[2,3-d]pyrimidin-6-one] are 121% and 116 nM.
Consider `Cc1noc(C2(C)C(=O)Nc3nc(-c4nc(Cc5cccc(F)c5F)nc5c4cnn5C)nc(N)c32)n1` (stereo not drawn) [Example 5, 4-Amino-2-(6-(2,3-difluorobenzyl)-1-methyl-1H-pyrazolo[3,4-d]pyrimidin-4-yl)-5-methyl-5-(3-methyl-1,2,4-oxadiazol-5-yl)-5,7-dihydro-6H-pyrrolo[2,3-d]pyrimidin-6-one], for which the Emax stood at 88% and the EC50 is 10 nM.
As to `[2H]C([2H])([2H])n1cc(C2(C)C(=O)Nc3nc(-c4nc(CCC(F)(F)C(F)(F)F)nc5c4cnn5C([2H])([2H])[2H])nc(N)c32)nn1` (single isomer, unassigned) [Example 76, 4-Amino-5-methyl-5-(1-(methyl-d3)-1H-1,2,3-triazol-4-yl)-2-(1-(methyl-d3)-6-(3,3,4,4,4-pentafluorobutyl)-1H-pyrazolo[3,4-d]pyrimidin-4-yl)-5,7-dihydro-6H-pyrrolo[2,3-d]pyrimidin-6-one], the Emax came to 148% and the EC50 was determined as 168 nM.
The matching figures for `Cn1cc(C2(C3CC3)C(=O)Nc3nc(-c4nc(CCCC(F)(F)F)nc5c4cnn5C)nc(N)c32)nn1` (single isomer, unassigned) [Example 62, 4-Amino-5-cyclopropyl-5-(1-methyl-1H-1,2,3-triazol-4-yl)-2-(1-methyl-6-(4,4,4-trifluorobutyl)-1H-pyrazolo[3,4-d]pyrimidin-4-yl)-5,7-dihydro-6H-pyrrolo[2,3-d]pyrimidin-6-one]: 99% and 800 nM.
Take `[2H]C([2H])([2H])n1ncc2c(-c3nc(N)c4c(n3)NC(=O)C4(c3nnc(C4CC4)o3)C3CC3)nc(CCCC(F)(F)F)nc21` (stereo not drawn) [Example 43, 4-Amino-5-cyclopropyl-5-(5-cyclopropyl-1,3,4-oxadiazol-2-yl)-2-(1-(methyl-d3)-6-(4,4,4-trifluorobutyl)-1H-pyrazolo[3,4-d]pyrimidin-4-yl)-5,7-dihydro-6H-pyrrolo[2,3-d]pyrimidin-6-one]: the Emax came to 143% and the EC50 worked out at 825 nM.
On the same counts, the results for `[2H]C([2H])([2H])n1ncc2c(-c3nc(N)c4c(n3)NC(=O)C4(C)c3nnc(C4CC4)o3)nc(CCC(F)(F)C(F)(F)F)nc21` (stereo not drawn) [Example 39, 4-Amino-5-(5-cyclopropyl-1,3,4-oxadiazol-2-yl)-5-methyl-2-(1-(methyl-d3)-6-(3,3,4,4,4-pentafluorobutyl)-1H-pyrazolo[3,4-d]pyrimidin-4-yl)-5,7-dihydro-6H-pyrrolo[2,3-d]pyrimidin-6-one] are 115% and 150 nM.
Take `CCC1(c2cn(C(C)C)nn2)C(=O)Nc2nc(-c3nc(CCC(F)(F)C(F)(F)F)nc4c3cnn4C)nc(N)c21` (single isomer, unassigned) [Example 68, 4-Amino-5-ethyl-5-(1-isopropyl-1H-1,2,3-triazol-4-yl)-2-(1-methyl-6-(3,3,4,4,4-pentafluorobutyl)-1H-pyrazolo[3,4-d]pyrimidin-4-yl)-5,7-dihydro-6H-pyrrolo[2,3-d]pyrimidin-6-one]: the Emax came to 133% and the EC50 was 811 nM.
As for `[2H]C([2H])([2H])n1ncc2c(-c3nc(N)c4c(n3)NC(=O)C4(C)c3ccccn3)nc(CCC(F)(F)C(F)(F)F)nc21` (stereo not drawn) [Example 7, 4-Amino-5-methyl-2-(1-(methyl-d3)-6-(3,3,4,4,4-pentafluorobutyl)-1H-pyrazolo[3,4-d]pyrimidin-4-yl)-5-(pyridin-2-yl)-5,7-dihydro-6H-pyrrolo[2,3-d]pyrimidin-6-one], the Emax turned out to be 147% and the EC50 was determined as 212 nM.
On to `C=CCn1cc(C2(C)C(=O)Nc3nc(-c4nc(CCC(F)(F)C(F)(F)F)nc5c4cnn5C)nc(N)c32)nn1` (single isomer, unassigned) [Example 75, 5-(1-allyl-1H-1,2,3-triazol-4-yl)-4-amino-5-methyl-2-(1-methyl-6-(3,3,4,4,4-pentafluorobutyl)-1H-pyrazolo[3,4-d]pyrimidin-4-yl)-5,7-dihydro-6H-pyrrolo[2,3-d]pyrimidin-6-one], for which the Emax came out at 139% and the EC50 worked out at 175 nM.
On the same counts, the results for `CC(C)c1nnc(C2(C3CC3)C(=O)Nc3nc(-c4nc(CCC(F)(F)C(F)(F)F)nc5c4cnn5C)nc(N)c32)o1` (stereo not drawn) [Example 49, 4-Amino-5-cyclopropyl-5-(5-isopropyl-1,3,4-oxadiazol-2-yl)-2-(1-methyl-6-(3,3,4,4,4-pentafluorobutyl)-1H-pyrazolo[3,4-d]pyrimidin-4-yl)-5,7-dihydro-6H-pyrrolo[2,3-d]pyrimidin-6-one] are 113% and 149 nM.
On the same counts, the results for `Cc1nnc(C2(C)C(=O)Nc3nc(-c4nc(CCC(F)(F)C(F)(F)F)nc5c4ccn5C)nc(N)c32)o1` (stereo not drawn) [Example 87, 4-Amino-5,7′-dimethyl-5-(5-methyl-1,3,4-oxadiazol-2-yl)-2′-(3,3,4,4,4-pentafluorobutyl)-5,7-dihydro-6H,7′H-[2,4′-bipyrrolo[2,3-d]pyrimidin]-6-one] are 86% and 378 nM.
